Results taken from patent US6740650B2, “Heterocyclic cytotoxic agents” (Rutgers, The State University of New Jersey, priority 2002, dated 2004).

How the values were obtained:
[1] = tested on: KB3-1 (oral); test: MTT-microtiter plate tetrazolinium cytotoxicity assay, KB3-1; format: cell-based
[2] = tested on: KBV-1 (mdr-1); test: MTT-microtiter plate tetrazolinium cytotoxicity assay, KBV-1; format: cell-based
[3] = tested on: KBH1.0 + V (H033342r.); test: MTT-microtiter plate tetrazolinium cytotoxicity assay, KBH1.0 + V; format: cell-based; conditions: continuous exposure 3-4 days
[4] = tested on: HELA (cervical); test: MTT-microtiter plate tetrazolinium cytotoxicity assay, HELA; format: cell-based; conditions: continuous exposure 3-4 days
[5] = tested on: HCT116 (colon); test: MTT-microtiter plate tetrazolinium cytotoxicity assay, HCT116; format: cell-based
[6] = tested on: ZR-75-1 (breast); test: MTT-microtiter plate tetrazolinium cytotoxicity assay, ZR-75-1; format: cell-based
[7] = target: T1, human topoisomerase I (Homo sapiens, UniProt P11387); test: Test A. Topoisomerase I-mediated DNA cleavage assay; format: biochemical; conditions: concentration relative to 2,3-dimethoxy-8,9-methylenedioxybenzo[i]phenanthridine (=1.0) producing same cleavage (approx. 10% DNA fragmentation); 30 min, 37° C.
T1 construct: unnamed fusion partner (recombinant fusion protein, T7 expression system); made in house; host or cells: E. coli
T1 sequence (P11387 1-765): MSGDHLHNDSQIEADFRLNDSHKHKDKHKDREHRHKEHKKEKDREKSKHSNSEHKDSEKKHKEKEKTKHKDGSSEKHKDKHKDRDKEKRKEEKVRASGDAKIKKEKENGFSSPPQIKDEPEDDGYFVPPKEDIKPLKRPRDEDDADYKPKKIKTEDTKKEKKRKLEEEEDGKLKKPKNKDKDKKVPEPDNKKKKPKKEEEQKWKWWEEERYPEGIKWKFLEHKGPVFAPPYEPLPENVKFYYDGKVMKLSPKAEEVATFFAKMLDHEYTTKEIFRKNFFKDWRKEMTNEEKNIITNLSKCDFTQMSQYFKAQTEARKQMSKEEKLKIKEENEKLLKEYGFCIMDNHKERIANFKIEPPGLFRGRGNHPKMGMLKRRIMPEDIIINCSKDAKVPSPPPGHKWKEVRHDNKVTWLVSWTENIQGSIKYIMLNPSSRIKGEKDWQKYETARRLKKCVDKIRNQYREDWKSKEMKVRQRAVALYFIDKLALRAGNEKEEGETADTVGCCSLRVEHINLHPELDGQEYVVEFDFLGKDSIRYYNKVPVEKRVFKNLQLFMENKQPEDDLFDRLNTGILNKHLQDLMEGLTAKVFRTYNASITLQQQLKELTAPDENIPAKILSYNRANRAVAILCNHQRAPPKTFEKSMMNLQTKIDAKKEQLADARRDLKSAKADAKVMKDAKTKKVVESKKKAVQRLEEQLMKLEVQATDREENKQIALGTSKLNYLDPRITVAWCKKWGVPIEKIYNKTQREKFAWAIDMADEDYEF
Description: Test A. Topoisomerase I-mediated DNA Cleavage Assay
Human topoisomerase I was expressed in E. Coli and isolated as a recombinant fusion protein using a T7 expression system as described previously (Makhey, D. et al., Bioorg. Med. Chem., 2000, 8, 1-11). DNA topoisomerase I was purified from calf thymus gland as reported previously (Maniatis, T., et al., J. Molecular Cloning, a Laboratory Manual, Cold Spring Harbor Laboratory, Cold Spring Harbor, N.Y., 149-185). Plasmid YepG was also purified by the alkali lysis method followed by phenol deproteination and CsCl/ethidium isopycnic centrifugation method as described (Maniatis, T.; Fritsch, E. F.; Sambrook, J. Molecular Cloning, a Laboratory Manual; Cold Spring Harbor Laboratory: Cold Spring Harbor, N.Y. 1982; pp 149-185).^102 The end-labeling of the plasmid was accomplished by digestion with a restriction enzyme followed by end-filling with Klenow polymerase as previously described (Liu, L. F.; Rowe, T. C.; Yang, L.; Tewey, K. M.; Chen, G. L. “Cleavage of DNA by mammalian topoisomerase II,” J Biol. Chem. 1983, 258, 15365).^103 Cleavage assays were performed as previously reported (B. Gatto et al. Cancer Res., 1996, 56, 2795-2800).^13 The drug and the DNA in presence of topoisomerase I was incubated for 30 minutes at 37° C. After development of the gels, typically 24-hour exposure was used to obtain autoradiograms outlining the extent of DNA fragmentation. Topoisomerase I-mediated DNA cleavage values are reported as REC, Relative Effective Concentration, i.e. concentrations relative to 2,3-dimethoxy-8,9-methylenedioxybenzo[i]phenanthridine, whose value is arbitrarily assumed as 1.0, that are able to produce the same cleavage on the plasmid DNA in the presence of human topoisomerase I. Relative potency was based upon the relative amount of drug needed to induce approximately 10% DNA fragmentation. Assays were performed under the direction of Dr. L. F. Liu, Department of Pharmacology, The University of Medicine and Dentistry of New Jersey, Robert Wood Johnson Medical School, Piscataway, N.J. Data from Test A for representative compounds of the invention is shown in Table 1.

[8] = tested on: human lymphoblast RPMI 8402; test: MTT-microtiter plate tetrazolinium cytotoxicity assay, RPMI 8402; format: cell-based; conditions: continuous exposure 3-4 days
Procedure: (§1) Test B. Inhibition of Cell Growth: MTT-microtiter Plate Tetrazolinium Cytotoxicity Assay (RPMI 8402, CPT-K5, U937, U937/CR Cells)
(§2) The cytotoxicity was determined using the MTT-microtiter plate tetrazolinium cytotoxicity assay (MTA) (See Chen A. Y. et al. Cancer Res. 1993, 53, 1332; Mosmann, T. J., J. Immunol. Methods 1983, 65, 55; and Carmichael, J. et al. Cancer Res. 1987, 47, 936). The human lymphoblast RPMI 8402 and its camptothecin-resistant variant cell line, CPT-K5 were provided by Dr. Toshiwo Andoh (Anchi Cancer Research Institute, Nagoya, Japan) (see Andoh, T.; Okada, K. “Drug resistance mechanisms of topoisomerase I drugs,” Adv. in Pharmacology 1994, 29B, 93). Human U-937 myeloid leukemia cells and U-937/CR cells were described by Rubin et al., J. Biol. Chem., 269, 2433-2439 (1994). The cytotoxicity assay was performed by using 96-well microtiter plates using 2000 cells/well, in […] of growth medium. Cells were grown in suspension at 37° C. in 5% CO2 and maintained by regular passage in RPMI medium supplemented with 10% heat-inactivated fetal bovine serum, L-glutamine (2 mM), penicillin (100U/mL), and streptomycin (0.1 mg/mL). For determination of IC50, cells were exposed continuously for 3-4 days to varying concentrations of drug, and MTT assays were performed at the end of the fourth day. […] All assays were performed at least twice in 6 replicate wells. All assays were performed under the direction of Dr. L. F. Liu, Department of Pharmacology, The University of Medicine and Dentistry of New Jersey, Robert Wood Johnson Medical School, Piscataway, N.J. Representative data is shown in Tables 2 and 3.

[9] = tested on: CPT-K5 (camptothecin-resistant variant of RPMI 8402); test: MTT-microtiter plate tetrazolinium cytotoxicity assay, CPT-K5; format: cell-based; conditions: Homo sapiens, continuous exposure 3-4 days
Procedure: as §1, §2

[10] = tested on: Human U-937 myeloid leukemia cells; test: MTT-microtiter plate tetrazolinium cytotoxicity assay, U937; format: cell-based; conditions: continuous exposure 3-4 days
Procedure: as §1, §2

[11] = tested on: U-937/CR cells; test: MTT-microtiter plate tetrazolinium cytotoxicity assay, U937/CR; format: cell-based; conditions: Homo sapiens, continuous exposure 3-4 days
Procedure: as §1, §2

[12] = Homo sapiens, KB 3-1, continuous exposure 3-4 days
[13] = Homo sapiens, KB-V1, continuous exposure 3-4 days
[14] = Homo sapiens, HCT-116, continuous exposure 3-4 days
[15] = Homo sapiens, ZR-75-1, continuous exposure 3-4 days

| Structure (SMILES) | IC50 ([1]; continuous exposure 3-4 days) | IC50 ([2]; continuous exposure 3-4 days) | IC50 [3] | IC50 [4] | IC50 ([5]; continuous exposure 3-4 days) | IC50 ([6]; continuous exposure 3-4 days) | Topoisomerase I-mediated DNA cleavage (REC, Relative Effective Concentration) [7] | IC50 [1, 12] | IC50 [2, 13] | IC50 ([4]; Homo sapiens, HeLa) | IC50 [5, 14] | IC50 [6, 15] | IC50 [8] | IC50 [9] | IC50 [10] | IC50 [11] | melting point |
| --- | --- | --- | --- | --- | --- | --- | --- | --- | --- | --- | --- | --- | --- | --- | --- | --- | --- |
| CC[C@@]1(O)C(=O)OCc2c1cc1n(c2=O)Cc2cc3ccccc3nc2-1 [CPT] | 6 nM | 6 nM | 7 nM | 4 nM | 3 nM | 4 nM | – | – | – | – | – | – | – | – | – | – | – |
| COc1cc2ccc3c4ccccc4nnc3c2cc1OC [Compound 6, 2,3-Dimethoxy-dibenzo[c,h]cinnoline] | – | – | 5000 nM | – | – | – | 5 | 6000 nM | 4000 nM | 6000 nM | 3200 nM | 4000 nM | 3000 nM | 10000 nM | 3000 nM | 3000 nM | – |
| COc1cc2ccc3c4cc5c(cc4nnc3c2cc1OC)OCO5 [Compound 14, 2,3-Dimethoxy-8,9-methylenedioxy-dibenzo[c,h]cinnoline] | – | – | 60 nM | – | – | – | 0.01 | 70 nM | 80 nM | 50 nM | 35 nM | 40 nM | 60 nM | 6000 nM | 60 nM | 3000 nM | – |
| COc1cc2ccc3c4cc(OC)c(OC)cc4nnc3c2cc1OC [Compound 19, 2,3,8,9-Tetramethoxy-dibenzo[c,h]cinnoline] | – | – | – | – | – | – | >100 | – | – | – | – | – | 10000 nM | > 10000 nM | 10000 nM | 20000 nM | – |
| COc1cc2nnc3c4cc(OC)c(OC)cc4ccc3c2cc1O [Compound 34, 9-Hydroxy-2,3,8-trimethoxydibenzo[c,h]cinnoline] | – | – | – | – | – | – | – | – | – | – | – | – | > 100000 nM | > 100000 nM | > 100000 nM | > 100000 nM | – |
| COc1cc2ccc3c4cc(OCc5ccccc5)c(OC)cc4nnc3c2cc1OC [Compound 42, 9-Benzyloxy-2,3,8-trimethoxydibenzo[c,h]cinnoline] | – | – | – | – | – | – | – | – | – | – | – | – | 38000 nM | 61000 nM | > 100000 nM | 40000 nM | 244 to 246 °C |
| COc1ccc2c(ccc3c4cc5c(cc4nnc23)OCO5)c1 [Compound 43, 2-Methoxy-8,9-methylenedioxydibenzo[c,h]cinnoline] | – | – | – | – | – | – | – | – | – | – | – | – | > 100000 nM | 52000 nM | 38000 nM | 30000 nM | 258 to 260 °C |
| COc1ccc2ccc3c4cc5c(cc4nnc3c2c1)OCO5 [Compound 44, 3-Methoxy-8,9-methylenedioxydibenzo[c,h]cinnoline] | – | – | – | – | – | – | – | – | – | – | – | – | 500 nM | 1300 nM | 43000 nM | 900 nM | 259 to 261 °C |
| COc1ccc2c(c1)nnc1c3cc(OC)c(OC)cc3ccc21 [Compound 60, 2,3,8-Trimethoxydibenzo[c,h]cinnoline] | – | – | – | – | – | – | 2 | – | – | – | – | – | 2000 nM | 4000 nM | 1900 nM | 2500 nM | 244 to 246 °C |
| COc1ccc2nnc3c4cc(OC)c(OC)cc4ccc3c2c1 [Compound 61, 2,3,9-Trimethoxydibenzo[c,h]cinnoline] | – | – | – | – | – | – | 10 | – | – | – | – | – | 4000 nM | 31000 nM | 3000 nM | 6000 nM | 215 to 217 °C |
| CCOc1ccc(-c2nc3ccc(-c4nc5ccc(N6CCN(C)CC6)cc5[nH]4)cc3[nH]2)cc1 [HO33342] | 250 nM | 3000 nM | > 10000 nM | 600 nM | 220 nM | 60 nM | – | – | – | – | – | – | – | – | – | – | – |
| CC[C@]1(O)C[C@@H]2CN(CCc3c([nH]c4ccccc34)[C@@](C(=O)OC)(c3cc4c(cc3OC)N(C)[C@H]3[C@@](O)(C(=O)OC)[C@H](OC(C)=O)[C@]5(CC)C=CCN6CC[C@]43[C@@H]65)C2)C1 [VBS, Vinblastine] | – | – | 2.2 nM | – | – | – | – | 3 nM | 400 nM | 2 nM | 3 nM | 3 nM | – | – | – | – | – |
